What was measured:
HCT 116 (colon) = assay: Human xenograft model, tumor growth inhibition; type: in vivo, female athymic nude mice; conditions: vehicle (Tw/MC) po qd × 14 + 5FU 50 mg/kg iv D1, 8, 15
Procedure: The TGI assessment, the treatment-induced decreases in tumor volume on day 21 of various treatment groups were compared to controls. Percent tumor growth inhibition (% TGI) was calculated as

H460 (lung) = assay: Human xenograft model, tumor growth inhibition; type: in vivo, female athymic nude mice
Procedure: To assess in vivo antitumor activity in human xenograft models, female athymic nude mice, 12 to 14 weeks of age, were implanted subcutaneously in the flank with human cancer cells. When the tumors reached approximately 100 mm^3 in size, the mice were pair-matched into various treatment groups. For oral administration, compounds were dissolved in a mixture of 0.5% methylcellulose and 0.1% Tween 80 and administered by gavage to the tumor-bearing mice. For i.v.andi.p..administration, compounds were dissolved in 0.9% NaCl and for the i.v. administration, the compound was administered via the tail vein.
Percent tumor growth inhibition (% TGI) was calculated as
% TGI=(Cday a−Tday a)/(Cday a−Cday 1)×100
Where C is the median tumor volume of the control group, T is the median tumor volume of the treatment group, and day a is the day of assessment.

How did the “% TGI at Day 15” value (HCT 116 (colon)) turn out when `O=c1[nH]cc(F)c(=O)[nH]1` [Compound 5FU, Fluorouracil] was run?
Its value is 34%.

With `CCCCc1nc2cc(/C=C/C(=O)NO)ccc2n1CCN(CC)CC` [Compound A8, 3-[2-Butyl-1-(2-diethylamino-ethyl)-1H-benzimidazol-5-yl]-N-hydroxy-acrylamide] as the molecule, how does the “% TGI at Day 15” value (H460 (lung); A8 50 mg/kg po qd × 14 d) read?
The value was 33%.

What about the “% TGI at Day 15” value (H460 (lung); A8 75 mg/kg po D1-3, D8-10) of the same molecule?
Its value is 14%.

For `N.N.O=C([O-])C1(C(=O)[O-])CCC1.[Pt+2]` [carboplatin, Carboplatin], which “% TGI at Day 15” value (H460 (lung); carboplatin 30 mg/kg ip D1, 8) is on record?
The value was 29%.

`Nc1ccn([C@@H]2O[C@H](CO)[C@@H](O)C2(F)F)c(=O)n1` [gemcitabine, Gemcitabine] was tested. Which “% TGI at Day 15” value (H460 (lung); gemcitabine 80 mg/kg ip D1, 5, 9, 13 + vehicle po qd × 14 d) did it give?
The value was 36%.

— US20100098691A1, “COMBINATION OF BENZIMIDAZOLE ANTI-CANCER AGENT AND A SECOND ANTI-CANCER AGENT” (S'BIO PTE LTD, priority 2001, published 2010)
